According to US10660967B2, “Curcumin conjugates and methods of use thereof” (priority 2016, dated 2020):
Converted amounts (≈) assume the structure as drawn. “And” between values parts separate entries of the source, which are not always exact repeats. Equal values may be shown once. Read-outs that look alike come from different tables or passages of the source.

Experiments:
[1] = test system: Candida albicans (local isolate); assay: Antimicrobial MIC, agar dilution; details: Candida albicans (local isolate)
[2] = test system: Staphylococcus aureus ATCC25923; assay: Antimicrobial MIC, agar dilution; details: ATCC25923, 18 h, read-out: Minimum inhibitory concentration (MIC)
[3] = test system: Streptococcus pyogenes ATCC19615; assay: Antimicrobial MIC, agar dilution
[4] = test system: Salmonella typhi ATCC19430; assay: Antimicrobial MIC, agar dilution; type: cell-based; details: Salmonella enterica, read-out: Minimum inhibitory concentration (MIC)
[5] = test system: Pseudomonas aeruginosa ATCC27853; assay: Antimicrobial MIC, agar dilution
[6] = test system: carrageenan induced paw edema; assay: Anti-inflammatory activity: acute carrageenan induced paw edema in rats; type: in vivo, Wister rats; details: 10 mg kg^−1 indomethacin mol equivalent; for % inhibition of edema / Mean edema thickness: intraperitoneally; for Mean edema thickness: mean ± SE; for Potency (% inhibition of edema relative to that of indomethacin reference standard): at 4 h effect
Procedure, shortened: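 Wistar rats (120–150 g, n=6/group) received subplantar 1% carrageenan in the right hind paw, and DMSO-vehicle animals served as controls. Results are given as % inhibition of edema thickness versus control.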

gastric mucosa = assay: Ulcerogenic liability (ulcer index); type: in vivo, albino mice
Method: The ulcerogenic liability was investigated in albino mice using the standard method. […] The animals were fasted 18 h before drug administration. […] The control group animals were given saline solution only with few drops of Tween 80. […] The gastric mucosa was examined with a magnifying lens (10×) for the presence of lesions and erosions.
1. percentage incidence of ulcer divided by 10;
2. average number of ulcers per stomach; and
3. average severity of ulcers;

[7] = test system: PHA-stimulated splenocytes; assay: Proliferative response of PHA-stimulated splenocytes (MTT assay); type: cell-based
Method: Immunomodulatory effects of the synthesized curcumin conjugates on the proliferative response of PHA-stimulated splenocytes were evaluated. The effect of curcumin and its amino acid conjugates on splenocyte viability and proliferation in response to a T cell miotgen (Phytohaemagglutinin; PHA) was evaluated using the MTT assay. Freshly prepared splenocytes (1×10^6 cells/200 μl/well) were cultured in a 96-well U-bottom microtiter plate (Nunc) in complete medium. Cells were treated with tested compounds at a final concentration of 10 μM, vehicle (DMSO) or left untreated in triplicate then incubated at 37° C. and 5% CO2. When testing the immunoregulatory effects of the compounds on splenocyte stimulation, PHA (5 μg/ml) was added to the culture media to induce T cell proliferation. The proliferative response to PHA+vehicle and vehicle alone served as controls. After 72 hr, media were removed after pelleting the cells by centrifugation and MTT salt solution (5 mg/ml) was added into each well then incubated at 37° C. for 4 h. Afterwards, formazan crystals were dissolved by adding 150 μl 10% sodium dodecyl sulfate (SDS). Absorbance was measured with a spectrophotometer at 570 nm and reference wavelength of 690 nm.
Splenocyte stimulation index was determined as the ratio of O.D. values in tested compounds versus vehicle control cultures.

[8] = test system: lipopolysaccharide-stimulated peritoneal macrophages; assay: Production of nitric oxide by lipopolysaccharide-stimulated peritoneal macrophages (Greiss reagent); type: cell-based; parameters: Potency (%): % inhibition of nitric oxide production relative to lipopolysaccharide-stimulated macrophages: concentration or dose not given beside the values; details: LPS-stimulated peritoneal macrophages
Method: The effects of the synthesized curcumin conjugates on the production of nitric oxide (μM) by lipopolysaccharide-stimulated peritoneal macrophages were evaluated.
Two milliliters of macrophage cells were seeded in 12-well tissue culture plates in nitrite-free medium supplemented with 0.1% bovine serum albumin and incubated at 37° C. LPS±epinephrine, norepinephrine, or dopamine at […] concentrations was added to some wells. The concentrations of LPS used ranged from 0.5 to 10 ng/ml. After incubation for 24 h, supernatants were collected for measuring nitric oxide (NO) by spectrophotometry. The production of NO was determined from the accumulation of nitrite (NO2), the metabolic end product of NO metabolism, in the medium using the Greiss reagent. About equal volumes (100 μl) of sample and Greiss reagent (1:1 mixture of 1% sulfanilamide in 5% phosphoric acid, and 0.1% a-naphthylamine in distilled water) were mixed and incubated at room temperature for 15 min, and absorbance was measured at 532 nm on a spectrophotometer.

[9] = ATCC19615, 18 h, read-out: Minimum inhibitory concentration (MIC)
[10] = ATCC19615, read-out: Minimum inhibitory concentration (MIC)
[11] = ATCC27853, 18 h, read-out: Minimum inhibitory concentration (MIC)
[12] = ATCC27853, read-out: Minimum inhibitory concentration (MIC)
[13] = both, albino, mouse, in vivo, po, 10 mg/kg, 3 days
[14] = orally, three successive days, 10 mg/kg indomethacin mol equivalent

C[C@@H]1[C@H](O)[C@@H](C)/C=C/C=C/C=C/C=C/C=C/C=C/C=C/[C@H](O[C@@H]2O[C@H](C)[C@@H](O)[C@H](N)[C@@H]2O)C[C@@H]2O[C@](O)(C[C@@H](O)C[C@@H](O)[C@H](O)CC[C@@H](O)C[C@@H](O)CC(=O)O[C@H]1C)C[C@H](O)[C@H]2C(=O)O [Amphotericin B, reference compound]
Minimum inhibitory concentration (MIC) ([1]; 37° C., 18 h): 0.39 µg/mL (≈ 0.000422 mM)
Minimum inhibitory concentration (MIC) ([1]; value in brackets): (0.422) μM

O=C(O)c1cn(C2CC2)c2cc(N3CCNCC3)c(F)cc2c1=O [Ciprofloxacin, reference compound]
MIC [2]: 1250 µg/mL (≈ 3.77 mM)
MIC [3, 9]: 1250 µg/mL
MIC [3, 10]: 3770 µM
MIC ([4]; 18 h): 2.4 µg/mL
MIC [4]: 7.24 µM
MIC [5, 11]: 4.8 µg/mL
MIC [5, 12]: 14.5 µM

COc1cc(/C=C/C(=O)CC(=O)/C=C/c2ccc(OC(=O)[C@@H](N)CCSC)c(OC)c2)ccc1OC(=O)[C@@H](N)CCSC.Cl.Cl [Compound 39]
% inhibition of edema ([6]; 1 h): 64%
Mean edema thickness ([6]; 1 h): 0.86 ± 0.13 mm
% inhibition of edema ([6]; 2 h): 70%
Mean edema thickness ([6]; 2 h): 0.62 ± 0.11 mm
% inhibition of edema ([6]; 3 h): 73%
Mean edema thickness ([6]; 3 h): 0.49 ± 0.07 mm
% inhibition of edema ([6]; 4 h): 97%
Mean edema thickness ([6]; 4 h): 0.04 ± 0.01 mm
% inhibition of edema ([6]; 24 h): 36%
Mean edema thickness ([6]; 24 h): 0.53 ± 0.03 mm
Potency (% inhibition of edema relative to that of indomethacin reference standard) [6]: 111

COc1cc(/C=C/C(=O)CC(=O)/C=C/c2ccc(OC(=O)[C@@H](N)C(C)C)c(OC)c2)ccc1OC(=O)[C@@H](N)C(C)C.Cl.Cl [Compound 41]
% inhibition of edema ([6]; 1 h): 60%
Mean edema thickness ([6]; 1 h): 0.97 ± 0.10 mm
% inhibition of edema ([6]; 2 h): 50%
Mean edema thickness ([6]; 2 h): 1.04 ± 0.12 mm
% inhibition of edema ([6]; 3 h): 48%
Mean edema thickness ([6]; 3 h): 0.93 ± 0.11 mm
% inhibition of edema ([6]; 4 h): 46%
Mean edema thickness ([6]; 4 h): 0.75 ± 0.09 mm
% inhibition of edema ([6]; 24 h): 14%
Mean edema thickness ([6]; 24 h): 0.71 ± 0.11 mm
Potency (% inhibition of edema relative to that of indomethacin reference standard) [6]: 53

CC[C@H](C)[C@H](N)C(=O)Oc1ccc(/C=C/C(=O)CC(=O)/C=C/c2ccc(OC(=O)[C@@H](N)[C@@H](C)CC)c(OC)c2)cc1OC.Cl.Cl [Compound 42]
% inhibition of edema ([6]; 1 h): 59% and 33%
Mean edema thickness ([6]; 1 h): 0.99 ± 0.09 mm and 1.61 ± 0.07 mm
% inhibition of edema ([6]; 2 h): 54% and 36%
Mean edema thickness ([6]; 2 h): 0.95 ± 0.09 mm and 1.31 ± 0.09 mm
% inhibition of edema ([6]; 3 h): 65% and 47%
% inhibition of edema ([6]; 4 h): 98% and 76%
% inhibition of edema ([6]; 24 h): 35% and 30%
Mean edema thickness ([6]; 24 h): 0.54 ± 0.01 mm and 0.58 ± 0.08 mm
Potency (% inhibition of edema relative to that of indomethacin reference standard) [6]: 113 and 87

COc1cc(/C=C/C(=O)CC(=O)/C=C/c2ccc(OC(=O)[C@@H](N)CCC(N)=O)c(OC)c2)ccc1OC(=O)[C@@H](N)CCC(N)=O.Cl.Cl [Compound 43]
% inhibition of edema ([6]; 1 h): 46%
Mean edema thickness ([6]; 1 h): 1.29 ± 0.19 mm
% inhibition of edema ([6]; 2 h): 45%
Mean edema thickness ([6]; 2 h): 1.14 ± 0.11 mm
% inhibition of edema ([6]; 3 h): 43%
Mean edema thickness ([6]; 3 h): 1.02 ± 0.14 mm
% inhibition of edema ([6]; 4 h): 42%
Mean edema thickness ([6]; 4 h): 0.81 ± 0.11 mm
% inhibition of edema ([6]; 24 h): 31%
Mean edema thickness ([6]; 24 h): 0.57 ± 0.09 mm
Potency (% inhibition of edema relative to that of indomethacin reference standard) [6]: 48

CC(C)Cc1ccc(C(C)C(=O)O)cc1 (centres unmarked) [Ibuprofen, 2-(4-isobutylphenyl)propanoic acid, reference compound]
Average of ulcer number (gastric mucosa; [13]): 0.33
Average severity of ulcer (gastric mucosa; [13]): 0.67
Number of animals with ulcer (gastric mucosa; [13]): 2/6
% Incidence of ulcer divided by 10 (gastric mucosa; [14]): 3.33

COc1ccc2c(c1)c(CC(=O)O)c(C)n2C(=O)c1ccc(Cl)cc1 [Indomethacin, 2-(1-(4-chlorobenzoyl)-5-methoxy-2-methyl-1H-indol-3-yl)acetic acid, reference compound]
% Incidence of ulcer divided by 10 (gastric mucosa; [13]): 10
Average of ulcer number (gastric mucosa; [13]): 2
Number of animals with ulcer (gastric mucosa; [13]): 6/6
Average severity of ulcer (gastric mucosa; [14]): 1.67
Ulcer index (gastric mucosa; sum of the three values, orally, three successive days, 10 mg/kg indomethacin mol equivalent): 13.67

CCn1cc(C(=O)O)c(=O)c2cc(F)c(N3CCNCC3)cc21 [Norfloxacin, reference compound]
MIC [2]: 1250 µg/mL (≈ 3.91 mM)
MIC [3, 9]: 625 µg/mL
MIC [3, 10]: 1960 µM
MIC ([4]; 18 h): 2.4 µg/mL
MIC [4]: 7.52 µM
MIC [5, 11]: 4.8 µg/mL
MIC [5, 12]: 15 µM

Phytohaemagglutinin [PHA, reference compound]
Stimulation Index (average ± SD) ([7]; PHA 5 μg/ml, 72 hr, compounds at 5 μM (method says 10 μM), ratio of O.D. versus vehicle control): 2.78 ± 0.28
splenocyte proliferation, fold relative to untreated control cells ([7]; in the presence of PHA, text of b265): 2.76 fold

lipopolysaccharide [LPS, reference compound]
Potency (%): % inhibition of nitric oxide production relative to lipopolysaccharide-stimulated macrophages [8]: 0.00%
Nitric oxide (nitrite) concentration, μM (average ± SD) ([8]; 24 h, nitrite by Greiss reagent): 27.31 ± 2.56 µM
